Source: patent US10941158B2, “Pyrazole ACC inhibitors and uses thereof” (Gilead Apollo, LLC, priority 2015, dated 2021)
Values after ≈ are worked out from the molar mass of the structure shown.

Legend:
human (hACC2) ACC2 = human (hACC2) ACC2 (Homo sapiens, UniProt O00763); test: In vitro Acetyl-CoA Carboxylase (ACC) inhibition assay (ADP-Glo), hACC2; format: biochemical
Procedure: The detailed procedure is as follows. […] 10 μL ADP glo reagent was added. […] 20 μL kinase detection reagent was added.
“NA” stands for “not assayed.”

[1] = test system: C. parapsilosis ATCC 22019; test: Anti-Fungal (Candida) Activity Assay, broth microtiter MIC; format: cell-based; details: Lodderomyces parapsilosis, ATCC22019; 3 replicates, MIC recorded at 48 h; read-out: MIC C. parapsilosis ATCC 22019
How it was run: (§1)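 MIC by visual comparison of challenged wells with growth control, scored at 48 h. Setup: CLSI M27-A3 broth microtiter plates, RPMI 1640+MOPS medium, direct colony suspension from overnight Sabouraud agar cultures (35 °C, 24 h).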

C. albicans ATCC 90028 = test: as above; format: cell-based; details: ATCC90028, 3 replicates, MIC recorded at 48 h, read-out: MIC C. albicans ATCC 90028
How it was run: as §1

C. krusei ATCC 6258 = test: as above; format: cell-based; details: Pichia kudriavzevii, ATCC6258; 3 replicates, MIC recorded at 48 h; read-out: MIC C. krusei ATCC 6258
How it was run: as §1

fungal (fACC2) ACC2 = fungal (fACC2) ACC2 (UniProt Q00955); details: read-out: fACC2 IC50; fungal ACC2, ADP-Glo
Sequence of fungal (fACC2) ACC2 (Q00955 whole entry): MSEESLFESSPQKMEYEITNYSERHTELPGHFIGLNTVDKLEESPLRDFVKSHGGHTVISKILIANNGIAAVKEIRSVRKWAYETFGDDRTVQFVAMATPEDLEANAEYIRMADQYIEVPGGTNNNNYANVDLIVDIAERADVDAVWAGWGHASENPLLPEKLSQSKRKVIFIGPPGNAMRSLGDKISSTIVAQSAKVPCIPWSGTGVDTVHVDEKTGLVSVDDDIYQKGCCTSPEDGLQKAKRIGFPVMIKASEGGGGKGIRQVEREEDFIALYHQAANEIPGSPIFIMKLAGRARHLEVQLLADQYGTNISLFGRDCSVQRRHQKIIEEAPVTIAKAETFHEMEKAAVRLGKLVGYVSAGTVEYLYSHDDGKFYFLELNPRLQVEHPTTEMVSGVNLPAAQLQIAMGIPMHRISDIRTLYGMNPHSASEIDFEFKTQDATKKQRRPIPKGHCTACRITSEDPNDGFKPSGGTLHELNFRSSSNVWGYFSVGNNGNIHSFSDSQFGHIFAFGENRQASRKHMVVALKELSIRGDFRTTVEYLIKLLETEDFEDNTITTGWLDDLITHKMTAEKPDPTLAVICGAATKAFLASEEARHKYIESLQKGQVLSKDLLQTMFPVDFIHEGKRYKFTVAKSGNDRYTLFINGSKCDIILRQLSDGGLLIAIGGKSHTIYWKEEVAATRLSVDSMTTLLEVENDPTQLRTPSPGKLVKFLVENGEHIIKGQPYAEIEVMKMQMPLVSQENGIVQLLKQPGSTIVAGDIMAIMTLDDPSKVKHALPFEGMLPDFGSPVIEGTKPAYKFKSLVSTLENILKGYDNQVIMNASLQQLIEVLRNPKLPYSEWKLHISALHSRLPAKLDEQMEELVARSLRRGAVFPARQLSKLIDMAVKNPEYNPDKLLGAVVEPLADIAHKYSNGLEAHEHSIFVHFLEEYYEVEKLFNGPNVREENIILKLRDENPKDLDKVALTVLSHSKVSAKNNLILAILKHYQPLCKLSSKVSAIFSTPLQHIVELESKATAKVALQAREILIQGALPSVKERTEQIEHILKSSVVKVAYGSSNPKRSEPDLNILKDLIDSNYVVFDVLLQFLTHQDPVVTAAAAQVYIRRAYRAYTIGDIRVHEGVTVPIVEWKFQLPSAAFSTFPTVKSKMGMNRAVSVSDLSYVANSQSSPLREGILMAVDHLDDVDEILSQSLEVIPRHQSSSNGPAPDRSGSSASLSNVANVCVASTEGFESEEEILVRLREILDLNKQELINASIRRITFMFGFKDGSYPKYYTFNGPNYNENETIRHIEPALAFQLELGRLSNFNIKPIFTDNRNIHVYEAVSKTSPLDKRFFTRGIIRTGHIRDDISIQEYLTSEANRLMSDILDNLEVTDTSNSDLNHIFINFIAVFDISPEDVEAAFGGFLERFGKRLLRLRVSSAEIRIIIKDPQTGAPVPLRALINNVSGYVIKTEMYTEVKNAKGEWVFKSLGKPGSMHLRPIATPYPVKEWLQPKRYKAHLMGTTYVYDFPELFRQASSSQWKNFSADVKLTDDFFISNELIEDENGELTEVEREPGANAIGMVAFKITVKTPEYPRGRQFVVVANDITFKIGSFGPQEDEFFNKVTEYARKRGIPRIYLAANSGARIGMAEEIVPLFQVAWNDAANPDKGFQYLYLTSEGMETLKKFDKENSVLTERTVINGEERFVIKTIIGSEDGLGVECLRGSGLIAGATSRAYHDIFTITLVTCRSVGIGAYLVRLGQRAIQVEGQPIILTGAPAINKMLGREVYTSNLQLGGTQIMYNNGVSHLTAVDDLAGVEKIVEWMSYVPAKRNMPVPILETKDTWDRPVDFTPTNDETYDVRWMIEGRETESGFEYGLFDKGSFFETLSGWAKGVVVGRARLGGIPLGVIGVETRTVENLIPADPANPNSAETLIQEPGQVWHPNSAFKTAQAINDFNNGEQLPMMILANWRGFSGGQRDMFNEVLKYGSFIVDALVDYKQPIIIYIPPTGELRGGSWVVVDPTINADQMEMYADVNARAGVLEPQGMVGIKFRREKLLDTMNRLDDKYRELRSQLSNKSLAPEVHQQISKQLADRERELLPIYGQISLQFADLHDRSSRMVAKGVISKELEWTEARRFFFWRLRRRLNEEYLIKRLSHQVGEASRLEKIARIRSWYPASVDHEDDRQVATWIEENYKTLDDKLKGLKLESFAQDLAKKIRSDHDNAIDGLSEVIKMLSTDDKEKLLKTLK

Sequence of human (hACC2) ACC2 (O00763 whole entry): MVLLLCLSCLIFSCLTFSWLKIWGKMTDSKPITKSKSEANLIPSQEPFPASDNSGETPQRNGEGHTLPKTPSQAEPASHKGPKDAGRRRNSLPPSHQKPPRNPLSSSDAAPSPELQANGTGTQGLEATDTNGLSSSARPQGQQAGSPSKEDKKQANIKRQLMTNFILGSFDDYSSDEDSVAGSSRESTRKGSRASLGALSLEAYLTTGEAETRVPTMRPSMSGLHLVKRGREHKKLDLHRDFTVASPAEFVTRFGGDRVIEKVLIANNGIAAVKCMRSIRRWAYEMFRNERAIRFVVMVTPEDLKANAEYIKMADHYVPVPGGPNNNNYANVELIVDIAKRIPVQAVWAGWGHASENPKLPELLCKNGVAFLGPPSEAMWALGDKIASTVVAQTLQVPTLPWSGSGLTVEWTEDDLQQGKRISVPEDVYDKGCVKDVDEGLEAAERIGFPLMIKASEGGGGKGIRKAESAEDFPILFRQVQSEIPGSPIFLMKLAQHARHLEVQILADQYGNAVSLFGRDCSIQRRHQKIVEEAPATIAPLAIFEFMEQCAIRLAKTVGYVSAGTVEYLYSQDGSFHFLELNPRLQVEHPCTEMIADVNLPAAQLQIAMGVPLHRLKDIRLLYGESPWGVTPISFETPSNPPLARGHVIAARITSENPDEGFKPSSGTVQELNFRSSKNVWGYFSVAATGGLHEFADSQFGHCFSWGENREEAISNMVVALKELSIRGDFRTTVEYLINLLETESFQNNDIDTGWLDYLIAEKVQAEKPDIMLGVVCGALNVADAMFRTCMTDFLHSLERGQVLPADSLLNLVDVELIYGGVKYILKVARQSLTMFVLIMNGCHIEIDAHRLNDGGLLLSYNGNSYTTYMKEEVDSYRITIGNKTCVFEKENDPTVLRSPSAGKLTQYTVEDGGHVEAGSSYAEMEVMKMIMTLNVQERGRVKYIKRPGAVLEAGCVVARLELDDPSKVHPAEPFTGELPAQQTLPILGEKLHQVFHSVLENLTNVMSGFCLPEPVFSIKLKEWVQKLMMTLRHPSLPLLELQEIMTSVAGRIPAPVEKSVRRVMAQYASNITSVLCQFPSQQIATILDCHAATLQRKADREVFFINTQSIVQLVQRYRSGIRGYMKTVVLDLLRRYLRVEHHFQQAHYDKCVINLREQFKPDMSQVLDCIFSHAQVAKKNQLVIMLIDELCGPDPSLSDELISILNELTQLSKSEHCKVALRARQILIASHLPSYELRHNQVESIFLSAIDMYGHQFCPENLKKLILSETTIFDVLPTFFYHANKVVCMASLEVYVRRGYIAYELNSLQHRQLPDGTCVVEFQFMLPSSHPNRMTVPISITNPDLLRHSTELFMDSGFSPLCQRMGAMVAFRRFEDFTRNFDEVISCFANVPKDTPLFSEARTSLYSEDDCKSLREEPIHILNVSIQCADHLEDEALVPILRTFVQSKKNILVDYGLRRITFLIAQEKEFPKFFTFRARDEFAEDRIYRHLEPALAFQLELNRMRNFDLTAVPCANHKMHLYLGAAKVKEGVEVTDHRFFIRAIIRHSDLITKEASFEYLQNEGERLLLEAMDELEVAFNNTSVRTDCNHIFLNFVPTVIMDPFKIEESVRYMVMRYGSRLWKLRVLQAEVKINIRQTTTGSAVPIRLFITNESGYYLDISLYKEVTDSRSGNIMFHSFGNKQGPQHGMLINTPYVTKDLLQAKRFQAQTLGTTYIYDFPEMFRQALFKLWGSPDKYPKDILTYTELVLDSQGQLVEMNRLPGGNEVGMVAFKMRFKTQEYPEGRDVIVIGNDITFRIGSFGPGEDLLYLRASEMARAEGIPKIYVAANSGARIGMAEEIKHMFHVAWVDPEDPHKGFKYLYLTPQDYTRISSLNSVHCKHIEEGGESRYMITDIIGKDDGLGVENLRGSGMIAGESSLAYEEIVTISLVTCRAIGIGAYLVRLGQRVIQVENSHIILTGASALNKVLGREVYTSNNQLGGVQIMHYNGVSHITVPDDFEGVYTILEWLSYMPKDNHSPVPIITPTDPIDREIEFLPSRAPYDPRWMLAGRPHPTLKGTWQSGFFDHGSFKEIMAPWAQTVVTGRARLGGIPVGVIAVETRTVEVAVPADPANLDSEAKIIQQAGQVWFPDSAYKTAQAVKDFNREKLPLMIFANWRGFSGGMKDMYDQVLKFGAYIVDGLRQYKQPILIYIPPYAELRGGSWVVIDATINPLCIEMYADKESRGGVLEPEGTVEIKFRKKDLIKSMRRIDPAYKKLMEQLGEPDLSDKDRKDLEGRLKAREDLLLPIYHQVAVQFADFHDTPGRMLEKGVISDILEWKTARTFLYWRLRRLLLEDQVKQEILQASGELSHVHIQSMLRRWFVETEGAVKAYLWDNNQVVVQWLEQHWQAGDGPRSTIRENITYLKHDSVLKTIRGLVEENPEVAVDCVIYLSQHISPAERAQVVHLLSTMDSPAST

Structure (SMILES) | IC50 (human (hACC2) ACC2) | MIC [1] | MIC (C. albicans ATCC 90028) | MIC (C. krusei ATCC 6258) | IC50 (fungal (fACC2) ACC2)
COCCO[C@@H](Cn1c(=O)n(C(C)C(=O)N2CCCC2)c(=O)c2c(C)c(-n3cccn3)sc21)c1cc(F)ccc1OC (mixture of isomers) [Compound I-54, 1-((R)-2-(5-fluoro-2-methoxyphenyl)-2-(2-methoxyethoxy)ethyl)-5-methyl-3-(1-oxo-1-(pyrrolidin-1-yl)propan-2-yl)-6-(1H-pyrazol-1-yl)thieno[2,3-d]pyrimidine-2,4(1H,3H)-dione] | 10 to 40 nM | > 4.1 µg/mL | > 4.1 µg/mL | > 4.1 µg/mL | 0.6 to 3 nM
Cc1c(-n2cccn2)sc2c1c(=O)n(C(C)(C)C(=O)NC(C)C)c(=O)n2C[C@H](OC1CCOCC1)c1cc(F)ccc1OCCO [Compound I-48] | 3 to 10 nM | > 4.1 µg/mL | > 4.1 µg/mL | > 4.1 µg/mL | 0.6 to 3 nM
COCCOc1ccc(F)cc1[C@H](Cn1c(=O)n(C(C)(C)C(=O)NC(C)C)c(=O)c2c(C)c(-n3cccn3)sc21)OC1CCOCC1 [Compound I-49] | 3 to 10 nM | > 4.1 µg/mL | > 4.1 µg/mL | 1.1 to 2 µg/mL (≈ 1.64 to 2.98 µM) | 0.6 to 3 nM
Cc1c(-n2cccn2)sc2c1c(=O)n(C(C)(C)C(=O)NC(C)C)c(=O)n2C[C@H](OC1CCOCC1)c1cc(F)ccc1OCC1COC1 [Compound I-50] | 3 to 10 nM | > 4.1 µg/mL | > 4.1 µg/mL | > 4.1 µg/mL | 0.6 to 3 nM
Cc1c(-n2cccn2)sc2c1c(=O)n(C(C)(C)C(=O)N1CCCC1)c(=O)n2C[C@H](OC1CCOCC1)c1cc(F)ccc1OCCO [Compound I-51] | 3 to 10 nM | 2.1 to 4 µg/mL (≈ 3.14 to 5.97 µM) | 1.1 to 2 µg/mL (≈ 1.64 to 2.99 µM) | 0.25 to 1 µg/mL (≈ 0.373 to 1.49 µM) | 0.6 to 3 nM
COCCOc1ccc(F)cc1[C@H](Cn1c(=O)n(C(C)(C)C(=O)N2CCCC2)c(=O)c2c(C)c(-n3cccn3)sc21)OC1CCOCC1 [Compound I-52] | 3 to 10 nM | 1.1 to 2 µg/mL (≈ 1.61 to 2.92 µM) | 2.1 to 4 µg/mL (≈ 3.07 to 5.85 µM) | 1.1 to 2 µg/mL (≈ 1.61 to 2.92 µM) | 0.6 to 3 nM
Cc1c(-n2cccn2)sc2c1c(=O)n(C(C)(C)C(=O)N1CCCC1)c(=O)n2C[C@H](OC1CCOCC1)c1cc(F)ccc1OCC1COC1 [Compound I-53] | 3 to 10 nM | 2.1 to 4 µg/mL (≈ 3.02 to 5.75 µM) | > 4.1 µg/mL | 1.1 to 2 µg/mL (≈ 1.58 to 2.87 µM) | 0.6 to 3 nM
COCCO[C@@H](Cn1c(=O)n(C(C)C(=O)NC(C)C)c(=O)c2c(C)c(-n3cccn3)sc21)c1cc(F)ccc1OC (stereo partly drawn) [Compound I-55] | 3 to 10 nM | 2.1 to 4 µg/mL (≈ 3.57 to 6.81 µM) | 2.1 to 4 µg/mL (≈ 3.57 to 6.81 µM) | 2.1 to 4 µg/mL (≈ 3.57 to 6.81 µM) | 0.6 to 3 nM
COCCO[C@@H](Cn1c(=O)n(C(C)C(N)=O)c(=O)c2c(C)c(-n3cccn3)sc21)c1cc(F)ccc1OC (stereo partly drawn) [Compound I-56] | > 40 nM | > 4.1 µg/mL | > 4.1 µg/mL | > 4.1 µg/mL | 10 to 40 nM
COCCO[C@@H](Cn1c(=O)n(C(C)C(=O)O)c(=O)c2c(C)c(-n3cccn3)sc21)c1cc(F)ccc1OC (stereo partly drawn) [Compound I-57] | 10 to 40 nM | > 4.1 µg/mL | > 4.1 µg/mL | > 4.1 µg/mL | 10 to 40 nM
COc1ccc(F)cc1[C@H](Cn1c(=O)n(C(C)C(=O)N2CCCC2)c(=O)c2c(C)c(-n3cccn3)sc21)OCCO (stereo partly drawn) [Compound I-58] | 3 to 10 nM | > 4.1 µg/mL | > 4.1 µg/mL | 2.1 to 4 µg/mL (≈ 3.59 to 6.83 µM) | 0.6 to 3 nM
COc1ccc(F)cc1[C@H](Cn1c(=O)n(C(C)C(=O)NC(C)C)c(=O)c2c(C)c(-n3cccn3)sc21)OCCO (stereo partly drawn) [Compound I-59] | 3 to 10 nM | > 4.1 µg/mL | > 4.1 µg/mL | > 4.1 µg/mL | 0.6 to 3 nM
